Measurements as given in US20200024278A1, “COMPOSITION COMPRISING ANTIBIOTIC COMPOUND AND AN HETEROCYCLIC COMPOUND AND THEIR USE IN PREVENTING OR TREATING BACTERIAL INFECTIONS” (MUTABILIS, priority 2016, published 2020).

Assays:
PAE UFR48 [1] = experiment: Fractional Inhibitory Concentration Index, checkerboard assay; type: cell-based, P. aeruginosa
Procedure: (§1) Method 2: Determination of the Fractional Inhibitory Concentration Index
(§2) Serial 2-fold dilutions of each antibiotic tested were prepared in ca-MHB and mixed in each well of a 96-well microtiter plate so that each row (and column) contained a fixed amount of one agent and increasing amounts of the second agent. The range of drug concentrations used in the checkerboard analysis was such that the dilution range encompassed the MIC for each drug used in the analysis. Broth microdilution plates were inoculated with each strain (Table 3) to yield 5.10^5 CFU/mL in a 100 μL final volume and incubated for 18 h at 35° C. in ambient air. Assays including Fosfomycin were supplemented with 25 μg/ml of Glucose-6-phosphate. MICs were determined after overnight incubation, and the fractional inhibitory concentration (FIC) index was calculated for each well. The FIC index (FICI) was calculated for each combination according to the equation FICI=FICa+FICb=(MIC of drug A in combination/MIC of drug A alone)+(MIC of drug B in combination/MIC of drug B alone). The FICI was interpreted as follows: synergy, FICI […]; indifference, 0.5<FIC<4; and antagonism, FICI>4. The checkerboard assays were performed in duplicate.

PAE UFR90 [2] = experiment: as above; type: cell-based, P. aeruginosa
Procedure: as §1, §2

ECO 190317 [3] = experiment: as above; type: cell-based, E. coli
Procedure: as §1, §2

ECL P99 [4] = experiment: MIC, broth microdilution (CLSI), substance alone or ATB combined with compound at 4 or 8 μg/mL; type: cell-based, E. cloacae; conditions: Enterobacter cloacae; substance alone; ECL P99; read-out: MIC
Procedure, shortened: (§3)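 Growth inhibition endpoint, read visually after 16-20 h at 35° C in ambient air. Cation-adjusted Mueller-Hinton broth, inoculum 5·10^5 CFU/mL, CLSI M7-A7 protocol.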

ECO UFR39 = experiment: as above; type: cell-based, E. coli; conditions: Escherichia coli; substance alone; ECO UFR39; read-out: MIC
Procedure, shortened: as §3

ECO 190317 [5] = experiment: as above; type: cell-based, E. coli; conditions: Escherichia coli; substance alone; ECO 190317; read-out: MIC
Procedure, shortened: as §3

SAU 29213 = experiment: as above; type: cell-based, S. aureus; conditions: for MIC ATB combined with compound: compound @8 μg/ml, SAU 29213
Procedure, shortened: as §3

KPN UFR68 = experiment: Fractional Inhibitory Concentration Index, checkerboard assay; type: cell-based, K. pneumoniae
Procedure: as §1, §2

ECL P99 [6] = experiment: as above; type: cell-based, E. cloacae
Procedure: as §1, §2

PAE 105250 = experiment: MIC, broth microdilution (CLSI), substance alone or ATB combined with compound at 4 or 8 μg/mL; type: cell-based, P. aeruginosa; conditions: PAE 105250; for MIC ATB combined with compound: compound @8 μg/ml
Procedure, shortened: as §3

PAE UFR48 [7] = experiment: as above; type: cell-based, P. aeruginosa; conditions: PAE UFR48; for MIC ATB combined with compound: compound @8 μg/ml
Procedure, shortened: as §3

PAE UFR90 [8] = experiment: as above; type: cell-based, P. aeruginosa; conditions: PAE UFR90; for MIC ATB combined with compound: compound @8 μg/ml
Procedure, shortened: as §3

KPN BAA-1898 = experiment: as above; type: cell-based, K. pneumoniae; conditions: Klebsiella pneumoniae, BAA1898; substance alone; KPN BAA-1898; read-out: MIC
Procedure: (§4) Compounds of the present invention were assessed against genotyped bacterial strains alone or in combination with an antibacterial. In the assays, MICs of said compounds or combination of antibiotics with fixed concentrations of said compounds (4 or 8 μg/mL) were determined by the broth microdilution method according to the Clinical Laboratory Standards Institute (CLSI-M7-A7). Briefly, compounds alone according to the invention were prepared in DMSO and spotted (2 μL each) on sterile polystyrene plates (Corning, 3788). Combinations of compounds and antibiotics dilutions were prepared in DMSO and spotted (1 μL each) on sterile polystyrene plates (Corning, 3788). Log phase bacterial suspensions were adjusted to a final density of 5·10^5 CFU/mL in cation-adjusted Mueller-Hinton broth (ca-MHB; Becton-Dickinson and Company) and added to each well (98 μL). Assays including Fosfomycin were supplemented with 25 μg/ml of Glucose-6-phosphate. Microplates were incubated for 16-20 h at 35° C. in ambient air. The MIC of the compounds was defined as the lowest concentration of said compounds that prevented bacterial growth as read by visual inspection. The MIC of ATB at each compound concentration was defined as the lowest concentration of ATB that prevented bacterial growth as read by visual inspection.

KPN UFR42 = experiment: as above; type: cell-based, K. pneumoniae; conditions: Klebsiella pneumoniae; substance alone; KPN UFR42; read-out: MIC
Procedure: as §4

SPN 49619 = experiment: as above; type: cell-based, S. pneumoniae; conditions: SPN 49619; for MIC ATB combined with compound: compound @8 μg/ml
Procedure, shortened: as §3

[9] = Pseudomonas aeruginosa, substance alone, read-out: MIC

`O=C1N2CC(c3cccnc3)=CC(C2)N1OS(=O)(=O)[O-].[Na+]` (stereo not drawn) [Example 8, sodium [3-(3-pyridyl)-7-oxo-1,6-diazabicyclo[3.2.1]oct-3-en-6-yl] sulfate] showed an FIC index min (PAE UFR48 [1]; compound +ATM) of no more than 0.13, an FIC index min (PAE UFR48 [1]; compound +FEP) of no more than 0.5 and an FIC index min (PAE UFR48 [1]; compound +FOS) of no more than 0.25. The FIC index min (PAE UFR48 [1]; compound +MEM) was 1.0, the FIC index min (PAE UFR48 [1]; compound +PIP) was no more than 0.31 and the FIC index min (PAE UFR90 [2]; compound +ATM) was no more than 0.75. For the same compound, the FIC index min (PAE UFR90 [2]; compound +FEP) was no more than 0.25, the FIC index min (PAE UFR90 [2]; compound +FOS) was no more than 0.62 and the FIC index min (PAE UFR90 [2]; compound +MEM) was no more than 0.56. It also gave an FIC index min (PAE UFR90 [2]; compound +PIP) of no more than 0.25, an FIC index min (ECO 190317 [3]; compound +ATM) of 0.13 and an FIC index min (ECO 190317 [3]; compound +FEP) of 0.13. The FIC index min (ECO 190317 [3]; compound +FOS) was 0.63, the FIC index min (ECO 190317 [3]; compound +MEM) was 0.57 and the FIC index min (ECO 190317 [3]; compound +PIP) was no more than 0.14. It also gave an MIC (ECL P99 [4]) of 8 µg/mL, an MIC (ECO UFR39) of 4 µg/mL and an MIC (ECO 190317 [5]) of 4 µg/mL. The “MIC ATB combined with compound” value (SAU 29213; ATB ATM) was less than 0.031 µg/mL, the “MIC ATB combined with compound” value (SAU 29213; ATB FEP) was “<=0.031 μg/mL” and the “MIC ATB combined with compound” value (SAU 29213; ATB FOS) was 0.25 µg/mL. For the same compound, the “MIC ATB combined with compound” value (SAU 29213; ATB MEM) was less than 0.031 µg/mL, the “MIC ATB combined with compound” value (SAU 29213; ATB PIP) was less than 0.031 µg/mL and the MIC (SAU 29213; Staphylococcus aureus, substance alone, SAU 29213 (MSSA 29213), read-out: MIC) was 8 µg/mL. The FIC index min (KPN UFR68; compound +ATM) was no more than 0.07, the FIC index min (KPN UFR68; compound +FEP) was no more than 0.08 and the FIC index min (KPN UFR68; compound +FOS) was 0.75. It also gave an FIC index min (KPN UFR68; compound +MEM) of no more than 0.07, an FIC index min (KPN UFR68; compound +PIP) of no more than 0.07 and an FIC index min (ECL P99 [6]; compound +ATM) of 0.53. The FIC index min (ECL P99 [6]; compound +FEP) was 0.25, the FIC index min (ECL P99 [6]; compound +FOS) was no more than 0.28 and the FIC index min (ECL P99 [6]; compound +MEM) was 0.75. For the same compound, the FIC index min (ECL P99 [6]; compound +PIP) was 0.16, the “MIC ATB combined with compound” value (PAE 105250; ATB ATM) was 8 µg/mL and the “MIC ATB combined with compound” value (PAE 105250; ATB FEP) was 4 µg/mL. The “MIC ATB combined with compound” value (PAE 105250; ATB FOS) was 128 µg/mL, the “MIC ATB combined with compound” value (PAE 105250; ATB MEM) was 2 µg/mL and the “MIC ATB combined with compound” value (PAE 105250; ATB PIP) was greater than 32 µg/mL. For the same compound, the MIC (PAE 105250; [9]) was greater than 32 µg/mL, the “MIC ATB combined with compound” value (PAE UFR48 [7]; ATB ATM) was 16 µg/mL and the “MIC ATB combined with compound” value (PAE UFR48 [7]; ATB FEP) was 32 µg/mL. For the same compound, the “MIC ATB combined with compound” value (PAE UFR48 [7]; ATB FOS) was 32 µg/mL, the “MIC ATB combined with compound” value (PAE UFR48 [7]; ATB MEM) was 4 µg/mL and the “MIC ATB combined with compound” value (PAE UFR48 [7]; ATB PIP) was greater than 32 µg/mL. The MIC (PAE UFR48 [7]; [9]) was greater than 128 µg/mL, the “MIC ATB combined with compound” value (PAE UFR90 [8]; ATB ATM) was 16 µg/mL and the “MIC ATB combined with compound” value (PAE UFR90 [8]; ATB FEP) was 4 µg/mL. For the same compound, the “MIC ATB combined with compound” value (PAE UFR90 [8]; ATB FOS) was 8 µg/mL, the “MIC ATB combined with compound” value (PAE UFR90 [8]; ATB MEM) was 2 µg/mL and the “MIC ATB combined with compound” value (PAE UFR90 [8]; ATB PIP) was greater than 32 µg/mL. It also gave an MIC (PAE UFR90 [8]; [9]) greater than 128 µg/mL, an MIC (KPN BAA-1898) of 8 µg/mL and an MIC (KPN UFR42) of 16 µg/mL. The “MIC ATB combined with compound” value (SPN 49619; ATB ATM) was “<=0.031 μg/mL”, the “MIC ATB combined with compound” value (SPN 49619; ATB FEP) was less than 0.031 µg/mL and the “MIC ATB combined with compound” value (SPN 49619; ATB FOS) was less than 0.125 µg/mL. For the same compound, the “MIC ATB combined with compound” value (SPN 49619; ATB MEM) was less than 0.031 µg/mL, the “MIC ATB combined with compound” value (SPN 49619; ATB PIP) was less than 0.031 µg/mL and the MIC (SPN 49619; Streptococcus pneumoniae, substance alone, read-out: MIC) was 4 µg/mL.
